# Data reported in US7034041B2 (priority 2000, dated 2006).
# Counter-ions that a name gives are not always drawn.
# Target: (+)-MK801 binding site of the ionotropic NMDA receptor
# Set-up: species or system rat
row,SMILES,Ki
1,"Cc1ccccc1C1=CCN(C2(c3ccccc3)CCCCC2)CC1 [Example 7, 4-(2-methylphenyl)-1-(1-phenylcyclohexyl)-1,2,3,6-tetrahydropyridine hydrochloride]",5.3 µM
2,"Clc1ccccc1C1=CCN(C2(c3ccccc3)CCCCC2)CC1 [Example 11, 4-(2-chlorophenyl)-1-(1-phenylcyclohexyl)-1,2,3,6-tetrahydropyridine hydrochloride]",2.8 µM
